The nature of data set [1]: Fiber substantivity: odor strength on fabric treated with softener, 14 member-panel. Also on record: species or system human. The conditions noted are these: 70% in isopropyl myristate dosed 0.25% w/w in softener; line dried 20 hours; 9 (very good) to 0 (very poor). The method, then:
Additionally, substantivity is evaluated olfactively by a panel after treating samples of substrate with a perfumed product, such as a fabric softener for cotton fabric or a shampoo for hair, containing the lactones described herein or other musk fragrances for comparison, according to standard procedures described below. Thus, the evaluation is essentially a relative odor intensity measurement. It is known that the perceived odor intensity of mixtures of perfume ingredients when evaluated as such is generally less than the sum of the perceived odors of the components. Thus, the perceived odor intensity of a 1:1 mixture of 2 of the components of the lactones described herein would be expected to be lower than the sum of the intensities of the separate components, i.e. in such mixtures odor suppression is generally found. On the contrary, the perceived odor intensity on substrate treated with the lactones described herein is at least equal to, but in most cases greater than the perceived intensity of substrate treated with equal amounts of the separate components.
Comparison of the fiber substantivity of single polycyclic musks and macrocyclic musks with musk mixtures is described herein. 70% Solutions in isopropyl myristate of the musks and musk mixtures to be tested are dosed at 0.25% w/w in a single Arquad fabric softener (GT 117B). The test is carried out by rinsing “6″×6” (weight: 16 g) cotton terry towel pieces at ambient temperature in a tergotometer according to the procedure below: • 3 g of fabric softener containing the test musk is added to 1 liter of water and agitated for one minute to disperse. The fabric piece is added and washed for 10 minutes with constant agitation at 100 rpm. On completion of the wash cycle, the pieces are hand wringed and line dried for 20 hours. • The cloths are assessed olfactively by a 14 member-panel. A 10-point scale is used running from 9 (very good) to 0 (very poor).

The nature of data set [2]: Appearance of musk in laundry detergent base. It is filed as physicochemical. The method, then:
Furthermore, musk lactone mixture A and other musks were also evaluated at two different loadings in laundry detergent base, as shown in Tables 38 and 39.

Another data set in a line: Odor strength on blotter. Details: species or system human. The text has this:
The results are presented below in Table 23a and Table 23b:

Data set [3] can be described thus: In use comparison of musk lactone mixture A with commercial musks in unperfumed laundry detergent, expert panel. Details: species or system human. The conditions noted are these: for DAMP HED / DAMP STR: damp towel; for DAMP HED / DRY TWL 1 DAY HED / DRY TWL 7 DAYS HED / DRY TWL 15 DAYS HED / JAR HED: hedonic; for DAMP STR / DRY TWL 1 DAY STR / DRY TWL 7 DAYS STR / DRY TWL 15 DAYS STR / JAR STR: strength; for DRY TWL 1 DAY HED / DRY TWL 1 DAY STR: dry towel 1 day; for DRY TWL 7 DAYS HED / DRY TWL 7 DAYS STR: dry towel 7 days; for DRY TWL 15 DAYS HED / DRY TWL 15 DAYS STR: dry towel 15 days; for JAR STR: jar (point of purchase). The protocol: Olfactive evaluations in use were performed by an expert panel. The range of materials evaluated was comprehensive, including musk products commercially available: Nitromusk, Polycyclic and Macrocyclic categories (Ambrettolide, Dihydro Ambrettolide, Scentolide, Muscone, Muscenone, Velvione, Musk Ambrette, Edenolide, Ethylene Brassylate, Galaxolide, Tonalide, Habanolide, Globanone, Macrolide, Oxalide T and others).
Evaluation samples were prepared using unperfumed laundry detergent (formulation example in Example 4, Table 10) at two different dosages: 10% Solution @ 0.8% (yielding 0.08% musk lactone mixture A) or 1.5% (yielding 0.15% musk lactone mixture A) driven by relative product performance in formulas and practical laboratory practices to execute the comparisons. The concentration of musk lactone mixture A in each evaluation was at the same concentration as the commercial musk.
The evaluations were performed in use stages: Jar (POP—Point of purchase), damp towel, Dry towel (1 day) and Storage Dry towel (7 days and 15 days). A five points scale was utilized, rating both strength and hedonic character: • Strength (STR) is rated as the overall scent power coming up from the substrate, due to physicochemical properties and commonly described as a combination of diffusion, bloom, body and or volume perceptions.

Data set [4] can be described thus: Appearance (solubility) of shampoo with musk, increased load. The format is physicochemical.
The mark [5] stands for this setting: 0.04% Musk in laundry detergent base.
Where [6] appears, read: 0.08% Musk in laundry detergent base.

The structures appear in SMILES notation.

With `CC1COCc2cc3c(cc21)C(C)(C)C(C)C3(C)C` (centres unmarked) [Galaxolide, galaxolide], in data set [1], the “ODOR STRENGTH ON FABRIC TREATED WITH SOFTENER, Rating (10-point scale)” value is 3.8. Also, the Appearance entry in data set [2] (setting [5]) is given as “Very cloudy”. Also, the Appearance entry in data set [2] (setting [6]) is “Phase separation”. For the same molecule, the “ODOR STRENGTH ON BLOTTER, Rating (10-point scale)” value in “Odor strength on blotter” is recorded as 5.8. Also, in data set [3] (10% IPM @1.5%), the “DAMP HED” value is “−−/−− ((−−) Significantly inferior)”, the “DAMP STR” value is reported as “−−/−− ((−−) Significantly inferior)”, the “DRY TWL 1 DAY HED” value is “−−/−− ((−−) Significantly inferior)” and the “DRY TWL 1 DAY STR” value was “−−/−− ((−−) Significantly inferior)”. In addition, in data set [3] (10% IPM @1.5%), the “DRY TWL 7 DAYS HED” value is reported as “−−/−− ((−−) Significantly inferior)”, the “DRY TWL 7 DAYS STR” value is on record as “−−/−− ((−−) Significantly inferior)”, the “DRY TWL 15 DAYS HED” value was “−−/−− ((−−) Significantly inferior)” and the “DRY TWL 15 DAYS STR” value was “−−/−− ((−−) Significantly inferior)”. In data set [3] (10% IPM @1.5%), the “JAR STR” value is on record as “−−/−− ((−−) Significantly inferior)” and the “JAR HED” value is “−−/−− ((−−) Significantly inferior)”.
In the case of `CC(=O)c1cc2c(cc1C)C(C)(C)C(C)CC2(C)C` (centres unmarked) [Tonalid, tonalid], the “ODOR STRENGTH ON FABRIC TREATED WITH SOFTENER, Rating (10-point scale)” value in data set [1] was 7.2. The “ODOR STRENGTH ON BLOTTER, Rating (10-point scale)” value in the data set “Odor strength on blotter” turned out to be 8.2.
The matching figures for `O=C1CCCCCCCCCCCCCCCO1` [Hexadecanolide]: 4.8 and 5.8.
As for `O=C1CCCCC/C=C\CCCCCCCCO1` [Ambrettolide], the Appearance entry in data set [2] (setting [5]) is “Very cloudy”. Also, the Appearance entry in data set [2] (setting [6]) is listed as “Phase separation”. The “appearance of shampoo formula” value in data set [4] (0.3% musk with 0.2% fruity floral fragrance oil) is listed as “cloudy”. Further, the “appearance of shampoo formula” value in data set [4] (lower level of ambrettolide (0.2%)) is reported as “remaining clear”. In addition, in data set [3] (10% IPM @0.8%), the “DAMP HED” value was “+ ((+) directionally superior)”, the “DAMP STR” value is given as “−− ((−−) Significantly inferior)”, the “DRY TWL 1 DAY HED” value is “−/− ((−) directionally inferior)” and the “DRY TWL 1 DAY STR” value is “−/− ((−) directionally inferior)”. In data set [3] (10% IPM @0.8%), the “DRY TWL 7 DAYS HED” value is recorded as “−/− ((−) directionally inferior)”, the “DRY TWL 7 DAYS STR” value is “−/− ((−) directionally inferior)”, the “DRY TWL 15 DAYS HED” value is given as “−/− ((−) directionally inferior)” and the “DRY TWL 15 DAYS STR” value is listed as “−/− ((−) directionally inferior)”. In data set [3] (10% IPM @0.8%), the “JAR STR” value is reported as “−− ((−−) Significantly inferior)” and the “JAR HED” value is “− ((−) directionally inferior)”.
